Measured values as given in patent publication US20030224390A1, “Method of identifying conformation-sensitive binding peptides and uses thereof” (Karo Bio AB, priority 2000, published 2003).

T1: androgen receptor (Homo sapiens, UniProt P10275)
T1 sequence (P10275 1-920): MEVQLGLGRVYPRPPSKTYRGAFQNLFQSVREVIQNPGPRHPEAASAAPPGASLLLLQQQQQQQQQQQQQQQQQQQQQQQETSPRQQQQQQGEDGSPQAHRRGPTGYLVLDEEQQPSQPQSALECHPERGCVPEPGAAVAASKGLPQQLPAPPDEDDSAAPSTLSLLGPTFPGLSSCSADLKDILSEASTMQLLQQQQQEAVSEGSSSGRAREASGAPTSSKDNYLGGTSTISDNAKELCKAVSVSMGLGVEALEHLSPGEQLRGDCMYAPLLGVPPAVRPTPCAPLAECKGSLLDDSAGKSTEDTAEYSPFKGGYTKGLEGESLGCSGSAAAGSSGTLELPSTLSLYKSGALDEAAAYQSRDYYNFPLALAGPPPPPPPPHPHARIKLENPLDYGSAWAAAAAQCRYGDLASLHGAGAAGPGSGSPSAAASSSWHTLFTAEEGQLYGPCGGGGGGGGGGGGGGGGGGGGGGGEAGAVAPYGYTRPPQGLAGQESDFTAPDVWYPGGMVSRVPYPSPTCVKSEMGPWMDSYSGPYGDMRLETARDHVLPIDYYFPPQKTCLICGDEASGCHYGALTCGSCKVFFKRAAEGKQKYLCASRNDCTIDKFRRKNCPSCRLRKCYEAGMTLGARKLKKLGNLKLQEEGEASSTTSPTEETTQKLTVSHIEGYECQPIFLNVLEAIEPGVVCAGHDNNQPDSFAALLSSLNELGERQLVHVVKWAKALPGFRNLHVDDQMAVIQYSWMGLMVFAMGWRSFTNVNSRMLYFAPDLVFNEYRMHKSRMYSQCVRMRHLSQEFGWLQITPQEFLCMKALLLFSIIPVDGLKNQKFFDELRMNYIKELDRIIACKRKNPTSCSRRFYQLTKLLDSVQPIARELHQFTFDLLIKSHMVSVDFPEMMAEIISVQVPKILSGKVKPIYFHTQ

T2: pVP16-AR (VP16 activation domain fused to androgen receptor), P10275
T2 chain: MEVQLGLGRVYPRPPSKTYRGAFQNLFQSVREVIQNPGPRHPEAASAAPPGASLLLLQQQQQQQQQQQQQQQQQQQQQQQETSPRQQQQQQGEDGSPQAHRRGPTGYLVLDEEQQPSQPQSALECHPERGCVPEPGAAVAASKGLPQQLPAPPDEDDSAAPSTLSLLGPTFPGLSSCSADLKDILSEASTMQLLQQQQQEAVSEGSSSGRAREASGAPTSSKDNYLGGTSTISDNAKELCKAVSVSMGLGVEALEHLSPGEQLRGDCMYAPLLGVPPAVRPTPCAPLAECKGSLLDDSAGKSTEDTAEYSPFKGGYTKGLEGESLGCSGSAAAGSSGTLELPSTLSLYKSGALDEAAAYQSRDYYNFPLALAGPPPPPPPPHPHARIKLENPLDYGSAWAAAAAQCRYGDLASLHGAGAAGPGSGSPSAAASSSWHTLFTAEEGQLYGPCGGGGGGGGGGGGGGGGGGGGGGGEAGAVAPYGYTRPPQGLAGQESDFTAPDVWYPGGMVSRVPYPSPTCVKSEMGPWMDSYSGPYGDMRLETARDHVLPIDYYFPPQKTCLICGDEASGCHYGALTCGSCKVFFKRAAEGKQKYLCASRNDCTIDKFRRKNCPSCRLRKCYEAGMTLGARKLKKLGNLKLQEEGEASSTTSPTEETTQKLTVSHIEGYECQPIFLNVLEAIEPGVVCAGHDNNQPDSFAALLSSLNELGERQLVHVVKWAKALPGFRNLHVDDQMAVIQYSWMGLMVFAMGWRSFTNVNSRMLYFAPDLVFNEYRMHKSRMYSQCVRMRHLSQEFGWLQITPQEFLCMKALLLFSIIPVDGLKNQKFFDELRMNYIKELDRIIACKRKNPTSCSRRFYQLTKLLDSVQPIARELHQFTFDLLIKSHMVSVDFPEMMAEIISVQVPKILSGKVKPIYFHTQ

T3: Gal4 transcriptional activation domain (AD) fused in frame with AR (pGAD-C2) (yeast), P10275
T3 chain: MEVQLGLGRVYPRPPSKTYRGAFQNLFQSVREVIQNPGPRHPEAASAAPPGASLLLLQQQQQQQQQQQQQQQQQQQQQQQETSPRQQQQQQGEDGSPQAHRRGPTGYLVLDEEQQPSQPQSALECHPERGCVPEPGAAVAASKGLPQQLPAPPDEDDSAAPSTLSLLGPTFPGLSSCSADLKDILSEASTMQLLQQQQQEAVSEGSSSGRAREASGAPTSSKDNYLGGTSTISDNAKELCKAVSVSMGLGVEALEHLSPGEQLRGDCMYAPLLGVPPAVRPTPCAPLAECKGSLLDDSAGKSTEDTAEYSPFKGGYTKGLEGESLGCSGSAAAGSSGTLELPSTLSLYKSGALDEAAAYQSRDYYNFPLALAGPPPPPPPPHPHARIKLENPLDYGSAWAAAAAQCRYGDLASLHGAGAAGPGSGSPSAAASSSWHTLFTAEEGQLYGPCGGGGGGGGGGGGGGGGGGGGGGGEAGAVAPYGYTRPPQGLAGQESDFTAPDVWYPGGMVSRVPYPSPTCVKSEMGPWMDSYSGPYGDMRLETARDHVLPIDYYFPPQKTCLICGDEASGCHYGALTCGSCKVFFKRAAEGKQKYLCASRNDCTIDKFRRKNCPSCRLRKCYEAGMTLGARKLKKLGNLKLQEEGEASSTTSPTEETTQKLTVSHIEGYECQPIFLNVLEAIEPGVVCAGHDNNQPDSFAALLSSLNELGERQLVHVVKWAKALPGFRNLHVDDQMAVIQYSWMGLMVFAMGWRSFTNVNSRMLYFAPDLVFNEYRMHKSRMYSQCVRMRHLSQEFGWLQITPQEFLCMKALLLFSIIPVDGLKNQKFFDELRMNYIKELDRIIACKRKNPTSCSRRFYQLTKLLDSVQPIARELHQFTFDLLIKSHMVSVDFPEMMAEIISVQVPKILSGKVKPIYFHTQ


How the values were obtained:
androgen receptor [1] = biological target: T1, androgen receptor; assay: Yeast two-hybrid screening of unbiased X15 peptide library, ligand induced β-galactosidase activity (FIG. 3, Table 503); assay type: cell-based; set-up: expressed in transfected cells; host or cells: Saccharomyces cerevisiae PJ69-4α; ligand induced β-galactosidase activity, No Lig / ligand induced β-galactosidase activity, DHT / ligand induced β-galactosidase activity, CPA / ligand induced β-galactosidase activity, RU / ligand induced β-galactosidase activity, Test / ligand induced β-galactosidase activity, MPA: unit not given here; settings: for ligand induced β-galactosidase activity, CPA / ligand induced β-galactosidase activity, DHT / ligand induced β-galactosidase activity, MPA / ligand induced β-galactosidase activity, RU / ligand induced β-galactosidase activity, Test / ligand induced β-galactosidase activity, No Lig: yeast two-hybrid; for Fold induction: untitled table before Table 503, values match DHT / No Lig of Table 503
Excerpt: Our library contained predominantly 15 random amino acid residues/peptide in order to identify motifs that might interact with nuclear receptor domains. If ligand is provided to the cells, one can screen for peptides that interact with the ligand-bound receptor. […] Included at the ends of the oligonucleotide were the synthetic restriction endonuclease cleavage sites, EcoRI or Mfe I (5′ end) and Sal I (3′ end). Oligonucleotides were annealed, then cleaved with excess restriction endonuclease and purified on agarose gels. The purified set of oligonucleotides was subcloned as an in-frame carboxy-terminal fusion to a Gal4 DNA binding domain (plasmid vector pMA424 derivative). […] The transformation mix was divided and grown on plates of selective media containing ligand and 25 mM 3-aminotriazole at 30° C. until colonies appeared in 3-7 days. […] Dihydrotestosterone (DHT) and medroxyprogesterone (MPA) were added to the media at 100 nM to identify peptides that interact with the receptor in the presence of ligand. After colonies appeared they were picked and dispersed into individual wells of a 96-well plate containing rich media (YPD).
To determine ligand dependence, two microliter aliquots were removed from the cell suspension, and arrayed and spotted onto each of two rectangular agar plates, one with 100 nM ligand and one without ligand. Growth was monitored daily.
A secondary test of ligand dependent activation was performed using the integrated GAL4-driven lacZ gene. Cell suspensions of the initial positive clones were diluted 20-fold into 20 microliters of rich media in a microplate and grown overnight at 30° C. in the presence and absence of ligand. Microplates were centrifuged for 5 minutes at 3000 rpm in a swinging table top centrifuge to pellet the yeast cells, and the overlying media was aspirated. […] An OD650 density determination was made to normalize the β-galactosidase activity. β-galactosidase activity was monitored following the addition of buffer containing chlorophenol red-β-galactopyranoside (CPRG) (Boehringer Mannheim) substrate at a final concentration of 0.5 mM. […] The maximum slope value of this measurement was normalized to cell density from the initial OD650 value, and the relative ligand dependence of β-galactosidase was determined by comparing the values plus and minus ligand.
In FIG. 3, all of these ligands were tested. The plasmids from true positives were extracted using standard yeast extraction protocols and re-transformed to verify the positive phenotype.

androgen receptor [2] = biological target: T1, androgen receptor; assay type: cell-based; set-up: expressed in transfected cells; settings: for luciferase normalized to β-galactosidase, DHT / luciferase normalized to β-galactosidase, MPA / luciferase normalized to β-galactosidase, RU486 / luciferase normalized to β-galactosidase, no compound: mammalian two-hybrid, Huh-7 cells; for luciferase normalized to β-galactosidase, DHT: ligand DHT; for luciferase normalized to β-galactosidase, MPA: ligand MPA; for luciferase normalized to β-galactosidase, RU486: ligand RU486
Excerpt: We used a mammalian two-hybrid system to determine specificities of the AR-binding peptides previously identified, through screening of the aforementioned yeast library, as ligand-dependent in their binding activity. Ligand was provided to the cells so the interaction could be observed. The human hepatoma cell line, Huh-7, was used as the recipient of two-hybrid vectors, pM and pVP16 (Clontech) (FIGS. 6A and 6B), containing fusions with peptide and AR, respectively. According to Clontech literature, the Clontech vectors pM and VP16 generate fusions of protein X with the GAL4 DNA-BD and fusions of protein Y with the VP16AD, in the Mammalian MM Two-Hybrid Assay Kit (#K1602-1). (Note: pM and VP16 contain unique cloning sites in the same order and reading frame as the DNA-BD and AD, respectively, vectors in the yeast […] Two-Hybrid Systems.) A third vector, pG5CAT, provides a CAT reporter gene under the control of a GAL4-responsive element and minimal promoter of the adenovirus E1b. The three vectors are cotransfected into any suitable mammalian host cell line by standard methods. The interaction between proteins X and Y is then assayed by measuring CAT gene expression by any standard method. In the absence of activation (i.e., no protein-protein interaction), the minimal E1b promoter will not express significant levels of CAT.
Briefly, cells are seeded in a 24-well culture plate to a density of 50-80% confluence in phenol red-free media containing charcoal-dextran stripped fetal bovine serum (10%). Following incubation overnight, cells are transfected with plasmids pM-peptide, pVP16-AR, pCMV-b-gal, and p5XGAL-Luc3 DNAs using lipofectamine 2000 (LifeTech) according to the manufacturer's protocol. Transfections are allowed to proceed for 6 hours and the transfection media is aspirated and replaced with recovery media for 18 hours. Following the recovery period, cells are treated with compound for 24 hours prior to cell harvesting. Cells are washed with PBS and then lysed using the lysis buffer from the Galacto-Light Plus β-galactosidase assay kit (Tropix). Assays for luciferase and β-galactosidase were performed as described by the manufacturer. Peptide/AR interactions are described in terms of the luciferase activity normalized for transfection efficiency using β-galactosidase activity (see FIG. 4A). Two types of useful information arose from these methods: 1) we generated a panel of useful peptide probes to analyze the conformational state of AR, and 2) we “fingerprinted” AR modulators with respect to AR conformation (FIG. 4B). […] FIG. 4B is the converse of 4A. It compares the ability of six ligands (DHT, MPA, CYP, RU486, FLUT and DHEAs to interact with AR in the presence of each of four peptides (D30, 5G11, B8H3 and […]). Thus, it is a “fingerprint” of each of the six ligands using a four peptide panel. (Note that “1269” and D30” refer to the same peptide.)

[3] = biological target: T2, pVP16-AR (VP16 activation domain fused …); assay: cell-based or functional assay
[4] = biological target: T3, Gal4 transcriptional activation domain …; assay: cell-based or functional assay

| Molecule | ligand induced β-galactosidase activity, CPA (androgen receptor [1]) | ligand induced β-galactosidase activity, DHT (androgen receptor [1]) | ligand induced β-galactosidase activity, MPA (androgen receptor [1]) | ligand induced β-galactosidase activity, RU (androgen receptor [1]) | ligand induced β-galactosidase activity, Test (androgen receptor [1]) | ligand induced β-galactosidase activity, No Lig (androgen receptor [1]) | Fold induction (androgen receptor [1]) | luciferase normalized to β-galactosidase, CYP. (androgen receptor [2]) | luciferase normalized to β-galactosidase, DHT (androgen receptor [2]) | luciferase normalized to β-galactosidase, MPA (androgen receptor [2]) | luciferase normalized to β-galactosidase, RU486 (androgen receptor [2]) | luciferase normalized to β-galactosidase, no compound (androgen receptor [2]) | also measured |
| --- | --- | --- | --- | --- | --- | --- | --- | --- | --- | --- | --- | --- | --- |
| EFRFPFHEMVREWESMGLERVRYAEP [M4D1] | −0.03955 | 0.3948 | 1.698 | 0.1 | 0.1337 | 0 | – | – | – | – | – | – | – |
| EFRQSFVSEILGGGWLPLDLOPS [M2H3] | 8.592 | 24.12 | 19.25 | 6.8 | 26.57 | 2.53 | 10 | – | – | – | – | – | – |
| EFRSSVFEQMYLCTGGSLDLQPS* [B5G11] | 0.9726 | 3.964 | – | 0.9 | – | 0.6382 | – | 4.462 | 15.84 | 8.029 | 0.1051 | 0.05028 | – |
| EFVNWDAVVPWSELVALLDLOPS [B8A10] | 0.3955 | 0.6163 | – | 0.4 | – | 0.8753 | 1 | – | – | – | – | – | – |
| HPTHSSRLWELLMEATPTM [D30] | – | – | – | – | – | – | – | 11.18 | 12.59 | 15.62 | 0.8461 | 0.03854 | – |
| B5G11, P04386 1-147 (modifications not checked) MKLLSSIEQACDICRLKKLKCSKEKPKCAKCLKNNWECRYSPKTKRSPLTRAHLTEVESRLERLEQLFLLIFPREDLDMILKMDSLQDIKALLTGLFVQDNVNKDAVTDRLASVETDMPLTLRQHRISATSSSEESSNKGQRQLTVSEFRSSVFEQMYLCTGGSLDLQPS | – | – | – | – | – | – | – | – | – | – | – | – | normalized luciferase activity, mammalian two-hybrid; CYP. [3]: 4.46; normalized luciferase activity, mammalian two-hybrid; DHT [3]: 15.8; normalized luciferase activity, mammalian two-hybrid; MPA [3]: 8.03; normalized luciferase activity, mammalian two-hybrid; RU486 [3]: 0.105; normalized luciferase activity, mammalian two-hybrid; no compound [3]: 0.0503; Fold induction, yeast two-hybrid [4]: 6 fold; β-galactosidase activity, yeast two-hybrid; CPA [4]: 0.973; β-galactosidase activity, yeast two-hybrid; DHT [4]: 3.96; β-galactosidase activity, yeast two-hybrid; No Lig [4]: 0.638; β-galactosidase activity, yeast two-hybrid; RU [4]: 0.9 |
